Experimental data published in ChEMBL document CHEMBL5150068, “Structure-Based Design of Tropane Derivatives as a Novel Series of CCR5 Antagonists with Broad-Spectrum Anti-HIV-1 Activities and Improved Oral Bioavailability” (J Med Chem, 2022).

Columns and labels:
Cytochrome P450 2C19 = Cytochrome P450 2C19 (Homo sapiens, UniProt P33261); assay: Inhibition of CYP2C19 (unknown origin); format: ADME
[1] = test system: Human immunodeficiency virus 1; assay: Antiviral activity against HIV-1 Ba-L infected in human HOS-CD4-CCR5 cells measured after 48 hrs incubation by ELISA based p24 antigen assay; format: functional, organism-based; details: Human immunodeficiency virus 1, Ba-L
in vitro [2] = details: human, PBMC
Description: Therapeutic index, ratio of CC50 for human PBMC to EC50 for antiviral activity against HIV-1 KIZ006 clinical isolate

[3] = test system: Human immunodeficiency virus 1; assay: Synergistic antiviral activity against HIV-1 Ba-L infected in human TZM-bl cells assessed as combination index in presence of zidovudine; format: functional
Cytochrome P450 3A4 [4] = target: T1, Cytochrome P450 3A4 (Homo sapiens, UniProt P08684); assay: Inhibition of CYP3A4 (unknown origin) using midazolam as substrate; format: ADME
T1 sequence (P08684 whole entry): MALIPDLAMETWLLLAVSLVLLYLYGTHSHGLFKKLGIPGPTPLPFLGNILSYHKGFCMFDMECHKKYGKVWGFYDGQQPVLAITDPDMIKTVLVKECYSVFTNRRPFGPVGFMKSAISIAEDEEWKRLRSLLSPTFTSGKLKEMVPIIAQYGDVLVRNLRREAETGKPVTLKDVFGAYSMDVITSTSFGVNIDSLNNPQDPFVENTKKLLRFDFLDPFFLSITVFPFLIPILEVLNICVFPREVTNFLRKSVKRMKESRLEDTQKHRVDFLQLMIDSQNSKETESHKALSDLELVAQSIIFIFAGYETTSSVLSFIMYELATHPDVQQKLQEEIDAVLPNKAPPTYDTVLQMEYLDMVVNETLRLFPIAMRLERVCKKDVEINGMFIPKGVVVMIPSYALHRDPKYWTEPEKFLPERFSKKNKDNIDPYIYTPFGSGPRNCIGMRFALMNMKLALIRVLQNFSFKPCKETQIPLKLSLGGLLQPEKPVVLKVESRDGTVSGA

[5] = AUC (0 to infinitive) in Sprague-Dawley rat at 2 mg/kg, iv measured upto 24 hrs; format: ADME, organism-based; parameters: dose 2 mg/kg, time < 24 hrs, route iv; details: in vivo
[6] = test system: Human immunodeficiency virus 1; assay: Synergistic antiviral activity against HIV-1 Ba-L infected in human TZM-bl cells assessed as combination index in presence of tenofovir; format: functional
[7] = AUC (0 to last) in Sprague-Dawley rat at 10 mg/kg, po measured upto 24 hrs; format: ADME, organism-based; parameters: dose 10 mg/kg, time < 24 hrs, route po; details: in vivo
Cytochrome P450 2C9 = Cytochrome P450 2C9 (Homo sapiens, UniProt P11712); assay: Inhibition of CYP2C9 (unknown origin); format: ADME
Sequence of Cytochrome P450 2C9 (P11712 whole entry): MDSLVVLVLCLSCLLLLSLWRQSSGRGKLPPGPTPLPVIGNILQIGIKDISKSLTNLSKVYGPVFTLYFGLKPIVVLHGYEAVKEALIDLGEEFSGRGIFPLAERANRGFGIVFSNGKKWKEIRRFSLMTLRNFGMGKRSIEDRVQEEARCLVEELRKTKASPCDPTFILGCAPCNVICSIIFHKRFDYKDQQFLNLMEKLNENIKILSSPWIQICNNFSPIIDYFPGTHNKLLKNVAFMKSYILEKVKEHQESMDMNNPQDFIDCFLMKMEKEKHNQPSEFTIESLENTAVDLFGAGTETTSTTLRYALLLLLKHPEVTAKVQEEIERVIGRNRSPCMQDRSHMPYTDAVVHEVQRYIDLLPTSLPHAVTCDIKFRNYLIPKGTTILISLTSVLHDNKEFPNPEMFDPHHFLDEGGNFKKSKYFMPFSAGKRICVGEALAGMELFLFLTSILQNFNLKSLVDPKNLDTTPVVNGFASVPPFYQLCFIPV

[8] = test system: Human immunodeficiency virus 1; assay: Antiviral activity against HIV-1 SF162 infected in human TZM-bl cells measured after 48 hrs incubation by luciferase based analysis; format: functional, organism-based; details: Human immunodeficiency virus 1, SF162, TZM-bl
[9] = Cytotoxicity against human HOS-CD4-CCR5 cells incubated for 48 hrs by MTT assay; format: toxicity, cell-based
[10] = Tmax in Sprague-Dawley rat at 10 mg/kg, po measured upto 24 hrs; format: ADME, organism-based; details: in vivo
Cytochrome P450 2D6 = Cytochrome P450 2D6 (Homo sapiens, UniProt P10635); assay: Inhibition of CYP2D6 (unknown origin); format: ADME
Sequence of Cytochrome P450 2D6 (P10635 whole entry): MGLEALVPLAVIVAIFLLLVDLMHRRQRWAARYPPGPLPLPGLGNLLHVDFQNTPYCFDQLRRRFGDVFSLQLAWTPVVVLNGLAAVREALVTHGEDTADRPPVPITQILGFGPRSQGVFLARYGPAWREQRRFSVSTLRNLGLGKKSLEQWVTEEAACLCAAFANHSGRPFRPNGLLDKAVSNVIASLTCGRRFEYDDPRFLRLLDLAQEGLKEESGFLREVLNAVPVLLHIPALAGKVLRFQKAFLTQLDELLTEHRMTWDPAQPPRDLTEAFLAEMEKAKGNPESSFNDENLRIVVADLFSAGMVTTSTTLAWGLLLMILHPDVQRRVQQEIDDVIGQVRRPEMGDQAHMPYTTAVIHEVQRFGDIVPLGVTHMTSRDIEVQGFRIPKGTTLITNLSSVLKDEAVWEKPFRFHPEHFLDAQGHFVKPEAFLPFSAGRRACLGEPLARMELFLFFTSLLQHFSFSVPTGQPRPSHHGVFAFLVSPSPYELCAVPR

[11] = test system: Human immunodeficiency virus 1; assay: Antiviral activity against HIV-1 Ba-L infected in human PM1 cells measured after 48 hrs incubation by ELISA based p24 antigen assay; format: functional, organism-based; details: Human immunodeficiency virus 1, Ba-L, PM1, 48 h
[12] = MRT in Sprague-Dawley rat at 10 mg/kg, po measured upto 24 hrs; format: ADME, organism-based; details: in vivo
[13] = Half life in Sprague-Dawley rat at 10 mg/kg, po measured upto 24 hrs; format: ADME, organism-based; details: in vivo
in vitro [14] = details: human, HOS-CD4-CCR5 cells
Description: Therapeutic index, ratio of CC50 for human HOS-CD4-CCR5 cells to EC50 for antiviral activity against HIV-1 Ba-L

[15] = test system: Human immunodeficiency virus 1; assay: Synergistic antiviral activity against HIV-1 Ba-L infected in human TZM-bl cells assessed as combination index in presence of lamivudine; format: functional
Cytochrome P450 3A4 [16] = target: T1, Cytochrome P450 3A4; assay: Inhibition of CYP3A4 (unknown origin) using testosterone as substrate; format: ADME
[17] = test system: Human immunodeficiency virus 1; assay: Synergistic antiviral activity against HIV-1 Ba-L infected in human TZM-bl cells assessed as combination index in presence of indinavir; format: functional
[18] = test system: Human immunodeficiency virus 1; assay: Antiviral activity against HIV-1 IIIB infected in human TZM-bl cells measured after 48 hrs incubation by luciferase based analysis; format: functional, organism-based; details: Human immunodeficiency virus 1, IIIB
[19] = test system: Human immunodeficiency virus 1; assay: Antiviral activity against HIV-1 KIZ006 clinical isolate infected in human PBMC measured after 48 hrs incubation by luciferase based analysis; format: functional, organism-based; details: Human immunodeficiency virus 1, KIZ006, PBMC
[20] = test system: Human immunodeficiency virus 1; assay: Antiviral activity against HIV-1 KIZ001 clinical isolate infected in human PBMC measured after 48 hrs incubation by luciferase based analysis; format: functional, organism-based; details: Human immunodeficiency virus 1, KIZ001, PBMC
in vitro [21] = details: human, PM1 cells
Description: Therapeutic index, ratio of CC50 for human PM1 cells to EC50 for antiviral activity against HIV-1 YU-2

[22] = test system: Human immunodeficiency virus 1; assay: Antiviral activity against HIV-1 KM018 clinical isolate infected in human PBMC measured after 48 hrs incubation by luciferase based analysis; format: functional, organism-based; details: Human immunodeficiency virus 1, KM018, PBMC
[23] = test system: Human immunodeficiency virus 1; assay: Synergistic antiviral activity against HIV-1 Ba-L infected in human TZM-bl cells assessed as combination index in presence of T-20; format: functional
[24] = Oral bioavailability in Sprague-Dawley rat at 10 mg/kg measured upto 24 hrs; format: ADME, organism-based; details: in vivo
[25] = target: C-C chemokine receptor type 5 (Homo sapiens, UniProt P51681); assay: Antagonist activity at CCR5 (unknown origin) expressed in HEK293 cells co-expressing Galpha16 assessed as intracellular calcium change incubated for 15 mins by Fluo-4 AM calcium flux assay; format: functional, cell-based
Sequence of C-C chemokine receptor type 5 (P51681 whole entry): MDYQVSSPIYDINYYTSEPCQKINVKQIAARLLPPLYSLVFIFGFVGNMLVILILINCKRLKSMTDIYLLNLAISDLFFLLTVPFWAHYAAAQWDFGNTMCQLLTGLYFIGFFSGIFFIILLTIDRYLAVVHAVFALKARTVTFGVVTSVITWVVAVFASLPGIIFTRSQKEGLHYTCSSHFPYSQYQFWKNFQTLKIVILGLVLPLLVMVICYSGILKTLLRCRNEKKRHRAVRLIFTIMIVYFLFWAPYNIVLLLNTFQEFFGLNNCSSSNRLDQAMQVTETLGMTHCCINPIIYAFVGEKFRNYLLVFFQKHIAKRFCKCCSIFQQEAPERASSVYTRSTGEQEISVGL

in vitro [26] = details: human, TZM-bl cells
Description: Therapeutic index, ratio of CC50 for human TZM-bl cells to EC50 for antiviral activity against HIV-1 Ba-L

[27] = Cytotoxicity against human PM1 cells incubated for 48 hrs by MTT assay; format: toxicity, cell-based
[28] = test system: Human immunodeficiency virus 1; assay: Antiviral activity against HIV-1 Ba-L infected in human TZM-bl cells measured after 48 hrs incubation by luciferase based analysis; format: functional, organism-based; details: Human immunodeficiency virus 1, Ba-L
[29] = test system: Human immunodeficiency virus 1; assay: Synergistic antiviral activity against HIV-1 Ba-L infected in human TZM-bl cells assessed as combination index in presence of etravirine; format: functional
[30] = Half life in Sprague-Dawley rat at 2 mg/kg, iv measured upto 24 hrs; format: ADME, organism-based; details: in vivo
[31] = test system: Human immunodeficiency virus 1; assay: Synergistic antiviral activity against HIV-1 Ba-L infected in human TZM-bl cells assessed as combination index in presence of nevirapine; format: functional
[32] = test system: Human immunodeficiency virus 1; assay: Antiviral activity against HIV-1 YU-2 (G140S/Q148H) infected in human TZM-bl cells measured after 48 hrs incubation by luciferase based analysis; format: functional, organism-based; details: Human immunodeficiency virus 1, YU-2 (G140S/Q148H)
Cytochrome P450 1A2 = target: T2, Cytochrome P450 1A2 (Homo sapiens, UniProt P05177); assay: Inhibition of CYP1A2 (unknown origin); format: ADME
T2 sequence (P05177 whole entry): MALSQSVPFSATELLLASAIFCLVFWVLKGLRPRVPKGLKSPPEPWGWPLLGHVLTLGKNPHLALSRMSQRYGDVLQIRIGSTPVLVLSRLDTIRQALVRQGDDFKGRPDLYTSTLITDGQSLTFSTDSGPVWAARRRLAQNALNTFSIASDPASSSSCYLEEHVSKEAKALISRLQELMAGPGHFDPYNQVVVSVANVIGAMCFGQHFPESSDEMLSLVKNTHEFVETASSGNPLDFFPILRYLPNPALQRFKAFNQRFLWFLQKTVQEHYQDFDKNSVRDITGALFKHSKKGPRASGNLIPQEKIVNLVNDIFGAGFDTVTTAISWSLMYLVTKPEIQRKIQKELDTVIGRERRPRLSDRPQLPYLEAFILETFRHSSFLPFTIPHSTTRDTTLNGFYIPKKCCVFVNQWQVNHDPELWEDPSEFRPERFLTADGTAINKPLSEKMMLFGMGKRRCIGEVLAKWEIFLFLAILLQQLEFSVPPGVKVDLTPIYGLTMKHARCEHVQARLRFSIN

[33] = test system: Human immunodeficiency virus 1; assay: Synergistic antiviral activity against HIV-1 Ba-L infected in human TZM-bl cells assessed as combination index in presence of emtricitabine; format: functional
in vitro [34] = details: human, PBMC; remark: listed apart in the source
Description: Therapeutic index, ratio of CC50 for human PBMC to EC50 for antiviral activity against HIV-1 KIZ001 clinical isolate

in vitro [35] = details: human, PM1 cells; remark: listed apart in the source
Description: Therapeutic index, ratio of CC50 for human PM1 cells to EC50 for antiviral activity against HIV-1 SF162

in vitro [36] = details: human, PM1 cells; remark: listed apart in the source
Description: Therapeutic index, ratio of CC50 for human PM1 cells to EC50 for antiviral activity against HIV-1 Ba-L

[37] = test system: Human immunodeficiency virus 1; assay: Synergistic antiviral activity against HIV-1 Ba-L infected in human TZM-bl cells assessed as combination index in presence of dolutegravir; format: functional
[38] = test system: Human immunodeficiency virus 1; assay: Synergistic antiviral activity against HIV-1 Ba-L infected in human TZM-bl cells assessed as combination index in presence of efavirenz; format: functional
[39] = AUC (0 to infinitive) in Sprague-Dawley rat at 10 mg/kg, po measured upto 24 hrs; format: ADME, organism-based; parameters: dose 10 mg/kg, time < 24 hrs, route po; details: in vivo
[40] = test system: Human immunodeficiency virus 1; assay: Antiviral activity against HIV-1 YU-2 infected in human TZM-bl cells measured after 48 hrs incubation by luciferase based analysis; format: functional, organism-based; details: Human immunodeficiency virus 1, YU-2, TZM-bl, 48 h
[41] = Cytotoxicity against human TZM-bl cells incubated for 48 hrs by MTT assay; format: toxicity, cell-based
[42] = test system: Human immunodeficiency virus 1; assay: Synergistic antiviral activity against HIV-1 Ba-L infected in human TZM-bl cells assessed as combination index in presence of raltegravir; format: functional
[43] = MRT in Sprague-Dawley rat at 2 mg/kg, iv measured upto 24 hrs; format: ADME, organism-based; details: in vivo
[44] = AUC (0 to last) in Sprague-Dawley rat at 2 mg/kg, iv measured upto 24 hrs; format: ADME, organism-based; parameters: dose 2 mg/kg, time < 24 hrs, route iv; details: in vivo
in vitro [45] = details: human, PBMC; remark: listed apart in the source
Description: Therapeutic index, ratio of CC50 for human PBMC to EC50 for antiviral activity against HIV-1 KM018 clinical isolate

[46] = Cmax in Sprague-Dawley rat at 10 mg/kg, po measured upto 24 hrs; format: ADME, organism-based; parameters: time < 24 hrs, dose 10 mg/kg, route po; details: in vivo
[47] = Cytotoxicity against human PBMC cells incubated for 48 hrs by MTT assay; format: toxicity, cell-based

Sequence of Cytochrome P450 2C19 (P33261 whole entry): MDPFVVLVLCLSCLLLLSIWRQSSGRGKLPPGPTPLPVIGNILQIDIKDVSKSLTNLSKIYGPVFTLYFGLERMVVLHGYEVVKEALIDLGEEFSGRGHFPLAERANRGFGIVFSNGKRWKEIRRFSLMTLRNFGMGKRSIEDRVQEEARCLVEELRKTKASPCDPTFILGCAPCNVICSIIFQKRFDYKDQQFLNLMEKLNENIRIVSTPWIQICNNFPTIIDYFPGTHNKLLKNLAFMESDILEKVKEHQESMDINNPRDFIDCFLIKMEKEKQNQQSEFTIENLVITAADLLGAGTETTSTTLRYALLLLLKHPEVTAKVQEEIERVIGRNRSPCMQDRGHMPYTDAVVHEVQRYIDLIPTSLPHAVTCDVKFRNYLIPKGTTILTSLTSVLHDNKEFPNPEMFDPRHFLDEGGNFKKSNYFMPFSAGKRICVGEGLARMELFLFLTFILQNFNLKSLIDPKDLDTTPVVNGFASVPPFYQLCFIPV

CC(=O)N1CCc2c(nc(C)n2[C@@H]2C[C@H]3CC[C@@H](C2)N3CC[C@H](NC(=O)C2CCC(F)(F)CC2)c2ccsc2)C1
IC50 (Cytochrome P450 2C19): > 25000 nM
EC50 [1]: 0.66 nM
selectivity ratio (in vitro [2]): 5390
CI [3]: 0.6
IC50 (Cytochrome P450 3A4 [4]): > 25000 nM
AUC ([5]; 24 h): 3.44 ng·h/mL
CI [6]: 0.47
AUC(0-t) at 24 h [7]: 270 ng·h/mL
IC50 (Cytochrome P450 2C9): > 25000 nM
EC50 [8]: 7.64 nM
CC50 at 48 h [9]: > 200000 nM
Tmax [10]: 2.67 h
IC50 (Cytochrome P450 2D6): > 25000 nM
EC50 [11]: 0.29 nM
MRT [12]: 9.16 h
half-life [13]: 6.44 h
selectivity ratio (in vitro [14]): > 30300
CI [15]: 0.69
IC50 (Cytochrome P450 3A4 [16]): > 25000 nM
CI [17]: 0.95
EC50 [18]: > 1000 nM
EC50 [19]: 19 nM
EC50 [20]: 5.26 nM
selectivity ratio (in vitro [21]): > 69200
EC50 [22]: 23.3 nM
CI [23]: 0.33
F ([24]; po, 10 mg/kg, 24 h): 11.9%
IC50 [25]: 15.9 nM
selectivity ratio (in vitro [26]): > 20000
CC50 at 48 h [27]: > 200000 nM
EC50 [28]: 10 nM
CI [29]: 0.75
half-life ([30]; Sprague-Dawley): 3.34 h
CI [31]: 0.41
EC50 [32]: 2.71 nM
IC50 (Cytochrome P450 1A2): > 25000 nM
CI [33]: 0.44
selectivity ratio (in vitro [34]): 19500
selectivity ratio (in vitro [35]): > 26200
selectivity ratio (in vitro [36]): > 69000
CI [37]: 0.5
CI [38]: 0.85
AUC ([39]; 24 h): 270 ng·h/mL
EC50 [40]: 2.89 nM
CC50 at 48 h [41]: > 200000 nM
CI [42]: 0.46
MRT ([43]; Sprague-Dawley, read-out: MRT): 9.16 h
AUC ([44]; 24 h): 270 ng·h/mL
selectivity ratio (in vitro [45]): 4400
Cmax [46]: 66.4 ng/mL
CC50 at 48 h [47]: 103000 nM

Cc1nc2c(n1[C@@H]1C[C@H]3CC[C@@H](C1)N3CC[C@H](NC(=O)C1CCC(F)(F)CC1)c1ccsc1)CCN(C(=O)C(C)C)C2
IC50 (Cytochrome P450 2C19): > 25000 nM
EC50 [1]: 1.56 nM
selectivity ratio (in vitro [2]): 6480
IC50 (Cytochrome P450 3A4 [4]): > 25000 nM
AUC(0-inf) ([5]; Sprague-Dawley): 283 ng·h/mL
AUC(0-t) at 24 h [7]: 283 ng·h/mL
IC50 (Cytochrome P450 2C9): > 25000 nM
EC50 [8]: 16 nM
CC50 at 48 h [9]: > 200000 nM
Tmax [10]: 2 h
IC50 (Cytochrome P450 2D6): > 25000 nM
EC50 [11]: 0.5 nM
MRT [12]: 13.2 h
half-life [13]: 10.3 h
selectivity ratio (in vitro [14]): > 12800
IC50 (Cytochrome P450 3A4 [16]): > 25000 nM
EC50 [18]: > 1000 nM
EC50 [19]: 12.6 nM
EC50 [20]: 7.82 nM
selectivity ratio (in vitro [21]): > 22900
EC50 [22]: 32 nM
bioavailability ([24]; Sprague-Dawley): 15.7%
IC50 [25]: 8.34 nM
selectivity ratio (in vitro [26]): > 18200
CC50 at 48 h [27]: > 200000 nM
EC50 [28]: 11 nM
t1/2 ([30]; iv, 2 mg/kg, 24 h): 1.6 h
EC50 [32]: 4.34 nM
IC50 (Cytochrome P450 1A2): > 25000 nM
selectivity ratio (in vitro [34]): 10400
selectivity ratio (in vitro [35]): > 12500
selectivity ratio (in vitro [36]): > 40000
AUC(0-inf) ([39]; Sprague-Dawley): 283 ng·h/mL
EC50 [40]: 8.73 nM
CC50 at 48 h [41]: > 200000 nM
MRT ([43]; iv, 2 mg/kg, 24 h): 13.2 h
AUC(0-t) at 24 h ([44]; Sprague-Dawley): 298 ng·h/mL
selectivity ratio (in vitro [45]): 2550
Cmax [46]: 49.5 ng/mL
CC50 at 48 h [47]: 81700 nM
